Reference: patent US9840498B2, “Substituted quinazolin-4-one derivatives” (NOVARTIS AG, priority 2013, dated 2017)
pIC50: −log10 of the molar value.

Key:
Conditions in all cases: enzymatic assay
PI3K alpha = PI3K alpha (Homo sapiens (Human), UniProt P42336); assay: Biochemical assay for PI3Kalpha (Kinase-Glo format)
Procedure: 1.1 Generation of Gene Constructs, Protein Expression and Purification
For the enzymatic assays, the preparation of PI3K gene constructs, protein expression and purification for HTS are described in WO2012/004299.
1.2 Biochemical Assays for PI3Kalpha, PI3Kbeta (Kinase-Glo Format)
The kinase reaction is performed in a final volume of 50 μl per well of a half area COSTAR, 96 well plate. The final concentrations of ATP and phosphatidyl inositol in the assay are 5 μM and 6 μg/mL, respectively. The reaction is started by the addition of PI3 kinase, e.g. PI3 kinase α.
The components of the assay are added per well as follows: • 10 μl test compound in 5% DMSO per well in […]. • Total activity is determined by addition 10 μl of 5% vol/vol DMSO in the first 4 wells of column 1 and the last 4 wells of column 12. • The background is determined by addition of 10 μM control compound to the last 4 wells of column 1 and the first 4 wells of column 12. • 2 mL ‘Assay mix’ are prepared per plate: • 1.912 mL of HEPES assay buffer • 8.33 μl of 3 mM stock of ATP giving a final concentration of 5 μM per well • 1 μl of [^33P]ATP on the activity date giving 0.05 μCi per well • 30 μl of 1 mg/mL PI stock giving a final concentration of 6 μg/mL per well • 5 μl of 1 M stock MgCl2 giving a final concentration of 1 mM per well • 20 μl of the assay mix are added per well. • 2 mL ‘Enzyme mix’ are prepared per plate (x* μl PI3 kinase p110α in 2 mL of kinase buffer). The ‘Enzyme mix’ is kept on ice during addition to the assay plates. * The volume of enzyme is dependent on the enzymatic activity of the batch in use. • 20 μl ‘Enzyme mix’ are added/well to start the reaction. • The plate is then incubated at room temperature for 90 minutes. • The reaction is terminated by the addition of 50 μl WGA-SPA bead (wheat germ agglutinin-coated Scintillation Proximity Assay beads) suspension per well. • The assay plate is sealed using TopSeal-S (heat seal for polystyrene microplates, PerkinElmer LAS [Deutschland] GmbH, Rodgau, Germany) and incubated at room temperature for at least 60 minutes. • The assay plate is then centrifuged at 1500 rpm for 2 minutes using the Jouan bench top centrifuge (Jouan Inc., Nantes, France). • The assay plate is counted using a Packard TopCount, each well being counted for 20 seconds.
In a more preferred assay, the kinase reaction is performed in a final volume of 10 μl per well of a low volume non-binding CORNING, 384 well black plate (Cat. No. #3676). The final concentrations of ATP and phosphatidyl inositol (PI) in the assay are 1 μM and 10 μg/mL, respectively. The reaction is started by the addition of ATP.
The components of the assay are added per well as follows: […]

PI3K delta = PI3K delta (Homo sapiens (Human), UniProt O00329); assay: Biochemical assay for PI3Kdelta (Adapta TR-FRET format)
Excerpt: (§1) For the enzymatic assays, the preparation of PI3K gene constructs, protein expression and purification for HTS are described in WO2012/004299. […] The TR-FRET Adapta™ Universal Kinase Assay Kit was purchased from Invitrogen Corporation (Carlsbad/CA, USA) (Cat. No. PV5099). The kit contains the following reagents: Adapta Eu-anti-ADP Antibody (Europium labeled anti-ADP antibody in HEPES buffered saline, Cat. No. PV5097), Alexa Fluor® 647-labeled ADP tracer (Alexa Fluor® 647-labeled ADP tracer in HEPES buffered saline, Cat. No. PV5098), proprietary TR-FRET dilution buffer pH 7.5 (Cat. No. PV3574). PIK3CD substrate Phosphatidylinositol was obtained from Invitrogen (vesicules consisting of 2 mM PI in 50 mM HEPES pH7.5; Cat. No. PV5371). PIK3CG substrate Phosphatidylinositol-4,5-bisphosphate (PIP(4,5)2 was obtained from Invitrogen (PIP2:PS large unilamellar vesicules consisting of 1 mM PI P2: 19 mM PS in 50 mM HEPES pH7.5, 3 mM MgCl2, 1 mM EGTA; Cat. No. PV5100). Time-Resolved Fluorescence Resonance Energy Transfer (TR-FRET) is a technology based on energy transfer between two adjacent dyes, from an excited electron in one dye (the donor) to an electron of an adjacent dye (the acceptor) through resonance, then released as a photon. This energy transfer is detected by an increase in the fluorescence emission of the acceptor, and a decrease in the fluorescence emission of the donor. TR-FRET assays for protein kinases use a long-lifetime lanthanide Terbium or Europium chelates as the donor species which overcome interference from compound autofluorescence or light scatter from precipitated compounds, by introducing a delay after excitation by a flashlamp excitation source. Results are often expressed as a ratio of the intensities of the acceptor and donor fluorophores. The ratiometric nature of such a value corrects for differences in assay volumes between wells, as well as corrects for quenching effects due to colored compounds. The Adapta™ assay can be divided into two phases: a kinase reaction phase and an ADP detection phase. In the kinase reaction phase, all kinase reaction components are added to the well and the reaction is allowed to incubate for a set period of time specific for each kinase. After the reaction, a detection solution of Eu-labeled anti-ADP antibody, Alexa Fluor® 647-labeled ADP tracer, and EDTA (to stop the kinase reaction) are added to the assay well. ADP formed by the kinase reaction will displace the Alexa Fluor® 647-labeled ADP tracer from the antibody, resulting in a decrease in TR-FRET signal. In the presence of an inhibitor, the amount of ADP formed by the kinase reaction is reduced, and the resulting intact antibody-tracer interaction maintains a high TR-FRET signal. In the Adapta™ assay, the donor (Europium-anti-ADP antibody) is excited at 340 nm and will transfer its energy to the acceptor (Alexa Fluor® 647-labeled ADP tracer). The emission from the Alexa Fluor® 647 can be monitored with a filter centered at 665 nm because it is located between the emission peaks of the donor, which is measured at 615/620 nm. 50 nL of compound dilutions were dispensed onto white 384-well small volume polystyrene plate as described in section 2.2. Then 5 μL of PI3Kgamma and PI3Kdelta and lipid substrate (PI or PIP2:PS) followed by 5 μL of ATP (final assay volume 10 μL) are incubated at RT. […] Reactions were stopped with 5 μL of a mixture of EDTA containing the Eu-labeled anti-ADP antibody and the Alexa Fluor® 647-labeled ADP tracer in TR-FRET dilution buffer (proprietary to IVG). Plates are read 15 to 60 mins later in a Synergy2 reader using an integration time of 0.4 seconds and a delay of 0.05 seconds. […] The control for the 0% inhibition was given by the solvent vehicle of the compounds (90% DMSO in H2O). Data are analyzed using Excel fit software or Graphpad Prism. EC50 values were derived by fitting a sigmoidal dose-response curve to a plot of assay readout over inhibitor concentration. […]

PI3K gamma = PI3K gamma (Homo sapiens (Human), UniProt P48736); assay: Biochemical assay for PI3Kgamma (Adapta TR-FRET format)
Excerpt: as §1

Chain of PI3K gamma (P48736 whole entry): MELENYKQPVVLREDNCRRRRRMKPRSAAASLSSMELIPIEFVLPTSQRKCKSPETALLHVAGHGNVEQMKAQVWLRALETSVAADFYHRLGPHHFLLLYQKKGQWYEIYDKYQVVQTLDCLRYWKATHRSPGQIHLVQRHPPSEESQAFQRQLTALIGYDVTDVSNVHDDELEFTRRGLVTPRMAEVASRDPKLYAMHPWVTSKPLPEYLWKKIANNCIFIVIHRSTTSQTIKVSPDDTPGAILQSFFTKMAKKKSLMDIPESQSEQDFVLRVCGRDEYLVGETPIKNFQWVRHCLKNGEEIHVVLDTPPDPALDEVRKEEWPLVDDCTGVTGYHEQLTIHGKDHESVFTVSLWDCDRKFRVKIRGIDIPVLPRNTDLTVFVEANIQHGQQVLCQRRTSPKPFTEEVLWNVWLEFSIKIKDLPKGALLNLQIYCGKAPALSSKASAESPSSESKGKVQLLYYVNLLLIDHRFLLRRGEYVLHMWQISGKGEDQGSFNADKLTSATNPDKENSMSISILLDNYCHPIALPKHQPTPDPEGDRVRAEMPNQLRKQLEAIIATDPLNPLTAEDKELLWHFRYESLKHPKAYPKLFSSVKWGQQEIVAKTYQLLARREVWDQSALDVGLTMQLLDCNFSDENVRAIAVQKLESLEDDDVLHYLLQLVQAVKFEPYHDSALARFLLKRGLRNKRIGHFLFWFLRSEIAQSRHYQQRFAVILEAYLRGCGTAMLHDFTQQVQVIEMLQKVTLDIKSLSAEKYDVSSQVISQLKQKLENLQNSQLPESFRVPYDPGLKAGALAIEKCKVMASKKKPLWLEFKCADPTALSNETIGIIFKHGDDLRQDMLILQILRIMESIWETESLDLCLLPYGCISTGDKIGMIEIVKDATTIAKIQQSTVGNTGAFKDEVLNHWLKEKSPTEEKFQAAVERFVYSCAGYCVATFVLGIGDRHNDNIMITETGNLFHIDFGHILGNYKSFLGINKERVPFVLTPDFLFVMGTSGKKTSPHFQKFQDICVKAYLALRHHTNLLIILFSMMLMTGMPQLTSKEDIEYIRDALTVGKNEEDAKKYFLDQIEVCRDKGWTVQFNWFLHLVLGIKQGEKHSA
Chain of PI3K delta (O00329 2-1044): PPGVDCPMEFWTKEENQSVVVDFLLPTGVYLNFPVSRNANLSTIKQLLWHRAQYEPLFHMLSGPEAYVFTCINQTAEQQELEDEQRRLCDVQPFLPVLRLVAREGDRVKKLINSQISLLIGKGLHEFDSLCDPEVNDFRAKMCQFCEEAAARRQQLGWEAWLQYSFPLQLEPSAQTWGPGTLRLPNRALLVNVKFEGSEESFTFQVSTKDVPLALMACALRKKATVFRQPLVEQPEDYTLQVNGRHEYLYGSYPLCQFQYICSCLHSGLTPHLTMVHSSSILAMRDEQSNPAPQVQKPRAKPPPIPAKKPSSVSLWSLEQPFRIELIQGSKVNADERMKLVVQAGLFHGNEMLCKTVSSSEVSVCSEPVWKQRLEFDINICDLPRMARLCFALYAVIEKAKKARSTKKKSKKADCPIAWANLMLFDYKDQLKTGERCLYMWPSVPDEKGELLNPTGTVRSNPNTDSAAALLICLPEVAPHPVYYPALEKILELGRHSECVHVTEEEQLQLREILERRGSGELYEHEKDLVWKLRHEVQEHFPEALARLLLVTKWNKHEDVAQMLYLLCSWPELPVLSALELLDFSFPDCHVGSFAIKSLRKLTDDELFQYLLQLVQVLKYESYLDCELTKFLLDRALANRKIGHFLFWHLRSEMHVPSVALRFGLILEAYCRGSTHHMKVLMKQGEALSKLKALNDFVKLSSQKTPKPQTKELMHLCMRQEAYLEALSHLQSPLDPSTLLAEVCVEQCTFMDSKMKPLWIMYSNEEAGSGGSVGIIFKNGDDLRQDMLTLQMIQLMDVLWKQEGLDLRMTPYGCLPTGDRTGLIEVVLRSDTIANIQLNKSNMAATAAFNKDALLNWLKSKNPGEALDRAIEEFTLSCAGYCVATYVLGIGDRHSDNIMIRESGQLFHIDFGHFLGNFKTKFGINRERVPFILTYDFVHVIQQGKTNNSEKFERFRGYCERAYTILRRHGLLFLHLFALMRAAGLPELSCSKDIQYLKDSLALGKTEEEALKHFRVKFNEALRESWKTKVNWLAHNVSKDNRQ
Chain of PI3K delta (P27986 461-568 partner): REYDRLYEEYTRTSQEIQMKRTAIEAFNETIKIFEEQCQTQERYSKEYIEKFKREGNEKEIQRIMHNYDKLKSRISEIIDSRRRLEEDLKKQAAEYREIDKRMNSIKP
Chain of PI3K alpha (P42336 21-1068): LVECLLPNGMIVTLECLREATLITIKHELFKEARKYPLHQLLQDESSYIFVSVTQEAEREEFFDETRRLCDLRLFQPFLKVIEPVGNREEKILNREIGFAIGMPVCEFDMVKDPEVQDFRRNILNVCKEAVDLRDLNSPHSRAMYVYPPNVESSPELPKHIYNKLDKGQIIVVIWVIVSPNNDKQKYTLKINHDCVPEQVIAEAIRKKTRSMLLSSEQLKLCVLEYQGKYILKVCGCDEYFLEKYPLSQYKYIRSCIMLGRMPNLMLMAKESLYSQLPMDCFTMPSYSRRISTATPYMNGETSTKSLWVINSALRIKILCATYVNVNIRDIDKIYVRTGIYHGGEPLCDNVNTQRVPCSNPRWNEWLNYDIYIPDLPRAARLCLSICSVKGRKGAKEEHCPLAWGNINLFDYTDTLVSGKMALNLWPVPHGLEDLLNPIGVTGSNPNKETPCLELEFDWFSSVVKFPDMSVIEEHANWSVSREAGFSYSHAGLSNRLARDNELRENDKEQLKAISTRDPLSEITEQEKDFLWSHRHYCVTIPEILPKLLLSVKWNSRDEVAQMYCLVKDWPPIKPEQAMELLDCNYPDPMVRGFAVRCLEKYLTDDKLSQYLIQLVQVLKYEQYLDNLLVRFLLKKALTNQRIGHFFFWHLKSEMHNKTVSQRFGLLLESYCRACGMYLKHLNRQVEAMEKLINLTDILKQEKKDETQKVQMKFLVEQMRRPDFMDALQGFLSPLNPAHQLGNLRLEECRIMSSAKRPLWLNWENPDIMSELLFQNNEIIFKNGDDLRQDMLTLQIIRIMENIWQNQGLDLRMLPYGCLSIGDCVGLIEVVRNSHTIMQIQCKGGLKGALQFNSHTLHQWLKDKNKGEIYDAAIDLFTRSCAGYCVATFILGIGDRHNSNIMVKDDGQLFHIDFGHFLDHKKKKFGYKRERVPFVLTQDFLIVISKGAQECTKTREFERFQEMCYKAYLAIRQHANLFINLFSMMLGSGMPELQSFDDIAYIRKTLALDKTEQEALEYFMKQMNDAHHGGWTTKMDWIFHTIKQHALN
Chain of PI3K alpha (P27986 461-568 partner): as the sequence (P27986 461-568 partner) above

| Structure (SMILES) | pIC50 (PI3K alpha) | pIC50 (PI3K delta) | pIC50 (PI3K gamma) |
| --- | --- | --- | --- |
| COc1ccc(-c2cccc3nc([C@@H]4C[C@H](O)CN4c4nc(N)nc(C)c4C#N)n(-c4ccccc4)c(=O)c23)cn1 [Example 27, 2-Amino-4-((2S,4S)-4-hydroxy-2-(5-(6-methoxypyridin-3-yl)-4-oxo-3-phenyl-3,4-dihydroquinazolin-2-yl)pyrrolidin-1-yl)-6-methylpyrimidine-5-carbonitrile] | 7.07 | 8.00 | 7.24 |
| Cc1nc(N)nc(N2C[C@@H](O)C[C@H]2c2nc3cccc(-c4cnn(CCO)c4)c3c(=O)n2-c2ccccc2)c1C#N [Example 28, 2-Amino-4-((2S,4S)-4-hydroxy-2-(5-(1-(2-hydroxyethyl)-1H-pyrazol-4-yl)-4-oxo-3-phenyl-3,4-dihydroquinazolin-2-yl)pyrrolidin-1-yl)-6-methylpyrimidine-5-carbonitrile] | 6.62 | 8.00 | 7.68 |
| CCOc1ncc(-c2c(F)ccc3nc([C@@H]4C[C@H](O)CN4c4nc(N)nc(C)c4C#N)n(-c4ccccc4)c(=O)c23)cn1 [Example 29, 2-Amino-4-((2S,4S)-2-(5-(2-ethoxypyrimidin-5-yl)-6-fluoro-4-oxo-3-phenyl-3,4-dihydroquinazolin-2-yl)-4-hydroxypyrrolidin-1-yl)-6-methylpyrimidine-5-carbonitrile] | 6.43 | 8.40 | 7.89 |
| Cc1nc(N)nc(N2C[C@@H](F)C[C@H]2c2nc3cccc(-c4cnn(C)c4)c3c(=O)n2-c2ccccc2)c1C#N [Example 30, 2-Amino-4-((2S,4S)-4-fluoro-2-(5-(1-methyl-1H-pyrazol-4-yl)-4-oxo-3-phenyl-3,4-dihydroquinazolin-2-yl)pyrrolidin-1-yl)-6-methylpyrimidine-5-carbonitrile] | 6.35 | 7.85 | 7.62 |

Now from value to molecule:

| pIC50 (PI3K alpha) | pIC50 (PI3K delta) | pIC50 (PI3K gamma) | Structure (SMILES) |
| --- | --- | --- | --- |
| 6.24 | 7.89 | 6.96 | Cc1nc(N)nc(N2C[C@@H](O)C[C@H]2c2nc3ccc(F)c(-c4cn(C)cn4)c3c(=O)n2-c2ccccc2)c1C#N [Example 31, 2-Amino-4-((2S,4S)-2-(6-fluoro-5-(1-methyl-1H-imidazol-4-yl)-4-oxo-3-phenyl-3,4-dihydroquinazolin-2-yl)-4-hydroxypyrrolidin-1-yl)-6-methylpyrimidine-5-carbonitrile] |
| 6.31 | 8.30 | 6.85 | CCOc1ncc(-c2cccc3nc([C@@H]4CCCN4c4nc(N)nc(C)c4C#N)n(-c4ccccc4)c(=O)c23)cn1 [Example 32, (S)-2-Amino-4-(2-(5-(2-ethoxypyrimidin-5-yl)-4-oxo-3-phenyl-3,4-dihydroquinazolin-2-yl)pyrrolidin-1-yl)-6-methylpyrimidine-5-carbonitrile] |
| 6.21 | 7.89 | 7.09 | N#Cc1c(N)ncnc1N1CCC[C@H]1c1nc2cccc(C#CCO)c2c(=O)n1-c1ccccc1 [Example 33, (S)-4-Amino-6-(2-(5-(3-hydroxyprop-1-yn-1-yl)-4-oxo-3-phenyl-3,4-dihydroquinazolin-2-yl)pyrrolidin-1-yl)pyrimidine-5-carbonitrile] |
